From patent publication US7853319B2, “Method and system for detecting electrophysiological changes in pre-cancerous and cancerous tissue and epithelium” (Epi-Sci, LLC, priority 2005, dated 2010)
Like-named read-outs stand apart in the source and are kept apart here.

Tests used:
distal colon = conditions: administered over the same period (four weeks) as carcinogen; cited from earlier work
[1] = test system: histologically "normal" colonic epithelium; conditions: cited from earlier work
[2] = test system: apical K+ channels of premalignant human mucosa (distal colon); test: Short circuit current of colonic mucosa ex vivo in Ussing chambers, premalignant mucosa; conditions: assuming complete block
Description: (§1) The potassium permeability of the apical membrane of human colonic mucosa (P^Ka) was determined in surgical specimens of controls and grossly normal-appearing mucosa obtained 10-30 cm proximal to colorectal adenocarcinomas. The mucosa was mounted in Ussing chambers and the basolateral membrane resistance and voltage were nullified by elevating the K^+ in the serosal bathing solution. The apical sodium (Na^+) conductance was blocked with 0.1 mM amiloride. This protocol reduces the equivalent circuit model of the epithelium to an apical membrane conductance and electromotive force in parallel with the paracellular pathway as has been verified by microelectrode studies. […] In cancer-bearing colon the reduction in Isc is to −65 μA/cm^2. The serosal bath was remained constant at 125 mM [K].
(§2) Because the voltage across the apical membrane is zero under these conditions and the paracellular pathway is nonselective, the P^Ka (apical potassium permeability) can be calculated using the Fick equation i.e., Isc=F·P^Ka·Δ[K] where F is the Faraday constant and Δ[K] is the concentration difference for K^+ across the epithelium. […] P^Ka could also be calculated for the change in Isc when the K^+ channels were blocked with TEA, assuming complete block.

[3] = test system: apical K+ channels of human colonic epithelium (normal colon); test: Short circuit current of colonic mucosa ex vivo in Ussing chambers, normal colon (controls)
Description: as §1, §2

breast epithelium = conditions: 20 μM luminal amiloride, cited from earlier work
breast tissue = test: Electrophysiological response of breast tissue after sublingual 17-β-estradiol; type: in vivo, human; conditions: sublingual administration, 4 mg
Description: In one method of the present invention, estradiol is introduced directly into the duct or systemically following sublingual administration of 17-β-estradiol (4 mg). This agent produces a rapid response, which peaks at approximately 20 minutes. The electrophysiological response depends, in part, on the stage of the patient's menstrual cycle, as well as the condition of the breast tissue. Specifically, in normal breast tissue, a rise in TEP will occur during the follicular (or early) phase. In pre-cancerous or cancerous tissue, this response is abrogated.

[4] = test system: benign breast epithelial cells; test: Cell membrane potential (ψ) with potentiometric fluorescent probe, benign cells; type: cell-based, human; conditions: estradiol added to the culture media; approximately −50 mV in its absence
Description: (§3) Measurements were made using a potentiometric fluorescent probe, and ratiometric measurements, which are calibrated using valinomycin and [K^+]-gradients. ψs were measured in the presence (closed circles) and absence (open circles) of estradiol (the active metabolite of estrogen). Each symbol is the mean measurement. The upper error bar is the standard error of the mean, and the lower error bar is the 95% confidence level for the observations. The addition of estrogen to cultured breast epithelial cells results in an instantaneous increase in ψ (data not shown) as well as the transepithelial potential see FIG. 8. Transepithelial potential (VT) of an epithelium is the sum of the apical (luminal) cell membrane potential (VA) and the basolateral (abluminal) cell membrane potential (VBL). Therefore VT=VA+VBL (changes in VA and/or VBL will therefore alter VT or transepithelial potential). […] Malignant and transformed cells have a ψ of between −31 and −35 mV in the absence of estradiol and […] when estradiol is present in the culture medium.

[5] = test system: Malignant and transformed cells (human breast epithelial cells); test: Cell membrane potential (ψ) with potentiometric fluorescent probe, malignant and transformed cells; type: cell-based; conditions: estradiol present in the culture medium; −31 to −35 mV in its absence
Description: as §3

[6] = test system: malignant human breast epithelial cells; test: Transepithelial potential of monolayers in modified Ussing chambers, malignant epithelia; type: cell-based
Description: (§4) It should be noted that the instantaneous response, illustrated in FIG. 8, is greater in malignant epithelia, whereas the chronic or sustained exposure to estradiol results in a lower increase in TEP (transepithelial electropotential) in malignant cells. Concurrent measurement of surface electropotential and impedance allow the more accurate diagnosis of cancer. […] The cells were grown as monolayers on Millipore filters and grew to confluence in 7 to 10 days. The epithelia were then mounted in modified Ussing chambers and the TEP was measured using a voltage clamp. Increasing doses of estradiol between 0 and 0.8 μM were added (x-axis). The transepithelial potential was measured after each addition and the TEP was measured (y-axis). The different dose response is apparent for benign and malignant epithelia. Malignant epithelia have a lower TEP but undergo an instantaneous increase in TEP of approximately 9 mV (becomes more electronegative and reaches a level of <−6 mV) after exposure to only 0.1 μM estradiol and then depolarize to approximately −2 mV with increasing doses of estradiol up to about 0.5 μM.

[7] = test system: benign human breast epithelial cells; test: Transepithelial potential of monolayers in modified Ussing chambers, benign epithelia; type: cell-based; conditions: then remains persistently elevated
Description: as §4

[8] = after exposure to 0.1 μM estradiol

O=c1[nH]cc(F)c(=O)[nH]1 [5-fluorouracil]
effect on transepithelial potential (VT) (distal colon): did not cause a reduction in VT

CNNC [DMH, 1,2 dimethylhydrazine]
VA (apical membrane voltage) ([1]; after 6 weeks of DMH treatment, from −74.9 mV): −61.4 mV
VA (apical membrane voltage) ([1]; by 20 weeks of DMH treatment): −34 mV

CC[N+](CC)(CC)CC [TEA]
apical K+ permeability (P^Ka) calculated from change in Isc on TEA block [2]: 3.8 ×10⁻⁶ cm/s
effect on short circuit current (Isc) ([3]; 30 mM mucosal TEA, 0.1 mM amiloride, elevated serosal K+, normal colon): abrupt increase in Isc
apical K+ permeability (P^Ka) calculated from change in Isc on TEA block ([3]; controls, assuming complete block): 6.4 ×10⁻⁶ cm/s

N=C(N)NC(=O)c1nc(Cl)c(N)nc1N [amiloride]
depolarization of the transepithelial potential (change) (breast epithelium; baseline −5.9±0.5 mV (mean±SEM)): +3.1±0.5 mV
increase in transepithelial resistance (breast epithelium): 17%

C[C@]12CC[C@@H]3c4ccc(O)cc4CC[C@H]3[C@@H]1CC[C@@H]2O [estradiol, 17-β-estradiol]
time to peak of electrophysiological response (breast tissue): approximately 20 minutes
cell membrane potential (ψ) [4]: ~−70 mV
cell membrane potential (ψ) [5]: approximately 50 mV
TEP level reached [6, 8]: < −6 mV
instantaneous increase in TEP [6, 8]: approximately 9 mV
TEP after depolarization with increasing doses ([6]; increasing doses of estradiol up to about 0.5 μM): approximately −2 mV
estradiol dose at which TEP response peaks [7]: ~0.3 µM
